As a reminder, the Papp is the rate of passage across a membrane or cell layer, normalised by area and donor concentration. A higher Papp goes with ready permeation. The term IC50 denotes the point on the concentration scale where inhibition reaches its midpoint. Read a low IC50 as inhibition by little substance.

Structures are written as SMILES. Calls of active or inactive are those of the source. No cut-off for these calls is given here.

Data set [1] can be described thus: in vitro. The settings on record: PAMPA. (PAMPA measures passive passage across an artificial lipid membrane.)
The nature of data set [2]: Glutathione peroxidase-like activity in pH 7.5 potassium phosphate buffer assessed as catalytic reduction of H2O2 by measuring initial velocity at 25 degreeC using GSH in presence of NADPH by UV absorbance analysis (reference value: 30.41+/- 2.06 microM/min). The format is functional.
Data set [3] concerns PC-12. Description: Neuroprotective activity against H2O2-induced cell damage in rat PC-12 cells assessed as decrease in cell death at 10 uM pretreated for 12 hrs followed by H2O2 challenge by MTT assay. It counts as functional, cell-based. (Tetrazolium dyes change colour on reduction, which living cells bring about.)
For data set [4], the target named is Beta-secretase 1 (Homo sapiens, UniProt P56817). Description: Inhibition of BACE-1 (unknown origin) using Mca-Ser-Glu-Val-Asn-Leu-Asp-Ala-Glu-Phe-Lys-Dnp-OH as substrate preincubated for 30 mins followed by substrate addition and measured after 1 hr by FRET assay.
Chain of Beta-secretase 1 (P56817 whole entry): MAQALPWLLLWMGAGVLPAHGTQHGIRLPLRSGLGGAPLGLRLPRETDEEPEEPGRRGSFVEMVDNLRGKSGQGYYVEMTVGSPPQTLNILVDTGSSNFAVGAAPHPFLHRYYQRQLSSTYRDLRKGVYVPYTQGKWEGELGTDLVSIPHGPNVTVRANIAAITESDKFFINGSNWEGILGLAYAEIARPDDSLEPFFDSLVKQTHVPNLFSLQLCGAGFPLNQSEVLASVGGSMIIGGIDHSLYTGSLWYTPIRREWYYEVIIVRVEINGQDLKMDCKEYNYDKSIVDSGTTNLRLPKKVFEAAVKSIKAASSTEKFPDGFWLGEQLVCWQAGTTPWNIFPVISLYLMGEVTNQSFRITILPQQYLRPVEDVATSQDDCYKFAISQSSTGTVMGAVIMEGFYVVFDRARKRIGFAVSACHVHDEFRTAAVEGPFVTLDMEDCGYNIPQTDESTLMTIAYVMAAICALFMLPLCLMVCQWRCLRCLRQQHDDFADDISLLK
Data set [5] concerns PC-12. Description: Cytotoxicity against rat PC-12 cells at 25 uM incubated for 24 hrs by MTT assay. Conditions: pc-12, 24 h. The format is cell-based.
For data set [6], the system named is PC-12. Description: Protection against H2O2-induced ROS accumulation in rat PC-12 cells assessed as intracellular ROS level by measuring mean fluorescence intensity pretreated for 12 hrs followed by H2O2 challenge by DCFH-DA staining based flow cytometry. The format is functional, cell-based. The settings on record: dose 2.5-10 µM. In general terms: Flow cytometry measures light scatter and fluorescence of single cells or particles in a stream.

Data set [7] concerns PC-12. Description: Protection against 6-OHDA-induced ROS accumulation in rat PC-12 cells assessed as intracellular ROS level by measuring mean fluorescence intensity pretreated for 12 hrs followed by 6-OHDA challenge by DCFH-DA staining based flow cytometry. The settings on record: dose 2.5-10 µM. It counts as functional, cell-based.
In data set [8] the test system is HEK293. Description: Inhibition of amyloid beta(1 to 40) secretion in human HEK293T cells transfected with human APP harboring Swedish double mutant K595N/M596L at 1 uM measured after 24 hrs by ELISA. It counts as functional, cell-based.
In data set [9] the test system is PC-12. Description: Cytoprotective activity against H2O2- induced cell death in rat PC-12 cells assessed as increase in viable cells pretreated for 12 hrs followed by H2O2 challenge by MTT assay. It counts as functional, cell-based. The settings on record: dose 2.5-10 µM.

Turning to `C[C@]12CC[C@@H]3c4ccc(O)cc4CC[C@H]3[C@@H]1CC[C@@H]2O` [ESTRADIOL], the Papp at 16 h in data set [1] was 12.2 ×10⁻⁶ cm/s.
As to `CN1C(N)=N[C@](C)(c2cc(-n3[se]c4cc(C(F)(F)F)ccc4c3=O)ccc2F)CS1(=O)=O`, in data set [2], the V0 was 145 µM/min.
Still for that read-out and setting: as for `CN1C(N)=N[C@](C)(c2cc(-n3[se]c4c(C(F)(F)F)cccc4c3=O)ccc2F)CS1(=O)=O`, the figure is 180 µM/min.
Take `CN1C(N)=N[C@](C)(c2cc(-n3[se]c4ccc(F)cc4c3=O)ccc2F)CS1(=O)=O`: the outcome in data set [3] was Active. Besides, the V0 in data set [2] is 197 µM/min. This compound also gave an IC50 in data set [4] of 1950 nM. Moreover, the Activity entry in [5] is listed as “Non-Toxic”.
For `CN1C(N)=N[C@](C)(c2cc(-n3[se]c4cc(F)c(F)cc4c3=O)ccc2F)CS1(=O)=O`, in that order: “Active”, 163 µM/min, 1120 nM and “Non-Toxic”.
For `CN1C(N)=N[C@](C)(c2cc(NC(=O)c3ccc(F)cn3)ccc2F)CS1(=O)=O`, the outcome in data set [6] and in data set [7] was inactive. Moreover, the result in [3] was Active. Also, the V0 in data set [2] was found to be 29.4 µM/min.
As for `Clc1cccc(Cl)c1N=C1NCCN1` [CLONIDINE], the Papp at 16 h in data set [1] is 7.36 ×10⁻⁶ cm/s.
Turning to `COc1ccc2c(=O)n(-c3ccc(F)c([C@]4(C)CS(=O)(=O)N(C)C(N)=N4)c3)[se]c2c1`, the V0 in [2] is 114 µM/min. The compound further displayed a half-maximal inhibitory concentration (IC50) in data set [4] of 1550 nM.
As for `CCn1cc(C(=O)O)c(=O)c2cc(F)c(N3CCNC(C)C3)c(F)c21` (configuration not stated) [LOMEFLOXACIN], in data set [1], the apparent permeability coefficient (Papp) at 16 h was 2.59 ×10⁻⁶ cm/s.
Turning to `Cc1ccc2c(=O)n(-c3ccc(F)c([C@]4(C)CS(=O)(=O)N(C)C(N)=N4)c3)[se]c2c1`, in [2], the V0 was 130 µM/min.
Same read-out and setting: as for `Cc1ccc2[se]n(-c3ccc(F)c([C@]4(C)CS(=O)(=O)N(C)C(N)=N4)c3)c(=O)c2c1`, the figure is 146 µM/min; as for `Cc1cccc2c(=O)n(-c3ccc(F)c([C@]4(C)CS(=O)(=O)N(C)C(N)=N4)c3)[se]c12`, 217 µM/min.
`COc1ccc2[se]n(-c3ccc(F)c([C@]4(C)CS(=O)(=O)N(C)C(N)=N4)c3)c(=O)c2c1`: the result in data set [3] was Active. In addition, the V0 in data set [2] is 161 µM/min. For the same compound, the concentration for half-maximal inhibition (IC50) in [4] came to 1490 nM. Also, the Activity entry in [5] is given as “Non-Toxic”.
Take `O=c1c2ccccc2[se]n1-c1ccccc1`: the Activity entry in [6], in [9] and in [7] was “Dose-Dependent Effect” each time. Besides, in data set [8], the inhibition entry is “inactive”. In addition, the result in data set [3] was Active. In addition, the V0 in [2] came to 153 µM/min.
With `CN1C(N)=N[C@](C)(c2cc(-n3[se]c4ccccc4c3=O)ccc2F)CS1(=O)=O`, the result in data set [3] was Active. Moreover, in data set [2], the V0 came to 156 µM/min. Moreover, half-maximal inhibition in [4] (IC50) was put at 1920 nM. Also, in data set [5], the Activity entry is “Non-Toxic”.
Taken in the same sequence, the figures for `CN1C(N)=N[C@](C)(c2cc(-n3[se]c4ccc(C(F)(F)F)cc4c3=O)ccc2F)CS1(=O)=O` were “Active”, 185 µM/min, 1600 nM and “Non-Toxic”.
Regarding `CN1C(C(=O)Nc2ccccn2)=C(O)c2ccccc2S1(=O)=O` [PIROXICAM], the Papp at 16 h in [1] stood at 3.07 ×10⁻⁶ cm/s.
For `CN1C(N)=N[C@](C)(c2cc(-n3[se]c4c(F)cccc4c3=O)ccc2F)CS1(=O)=O`, the V0 in data set [2] stood at 242 µM/min.

For the origin of these results see ChEMBL document CHEMBL4811256, “Synthesis and evaluation of multi-target-directed ligands with BACE-1 inhibitory and Nrf2 agonist activities as potential agents against Alzheimer's disease” (Eur J Med Chem, 2021).
